Measurements as given in article PMC9718554, “Discovery of a fragment hit compound targeting D-Ala:D-Ala ligase of bacterial peptidoglycan biosynthesis” (Journal of Enzyme Inhibition and Medicinal Chemistry, 2022).
Read-outs that look alike come from different tables or passages of the source.

Target: T1, E. coli DdlB enzyme (D-alanine:D-alanine ligase) (Escherichia coli, UniProt P07862)
T1 construct: made in house; host or cells: E. coli
Test: biochemical
Details: for remaining activity at 2800 µM: tested concentration 2.8 mM; for remaining activity at 1800 µM: tested concentration 1.8 mM; for remaining activity at 2400 µM: tested concentration 2.4 mM; for remaining activity at 1900 µM: tested concentration 1.9 mM; for remaining activity at 2100 µM: tested concentration 2.1 mM; for remaining activity at 2000 µM: tested concentration 2.0 mM; for remaining activity at 2200 µM: tested concentration 2.2 mM
Experimental: The fragment library was assayed in a DdlB inhibition assay, where fragments were tested for their ability to inhibit the D-Ala-adding activity of DdlB ligase. The orthophosphate formed during the enzymatic reaction was measured spectrophotometrically using malachite green reagent.
A recombinant E. coli DdlB enzyme (D-alanine:D-alanine ligase) was expressed in E. coli[11]. […] The final DMSO concentration was 5%. […] All experiments were performed in duplicates. […] IC50 values were determined by measuring the residual activities in quadruplicate at seven different compound concentrations and calculated using in GraphPad Prism (GraphPad Software, San Diego, CA, USA).

[1] = residual activity, read-out: DdlB RA
[2] = residual activity of DdlB, fragment library screening, tested concentration 2.5 mM, read-out: DdlB RA
[3] = fragment library screening, read-out: DdlB RA

CC(C)C(=O)N1CC(n2cc(C(=O)N(C)C)nn2)C1 [Compound S724-0111]
remaining activity at 2300 µM (residual activity, tested concentration 2.3 mM, read-out: DdlB RA): 97%

C#CC(=O)NCc1ccc(F)cc1F [Compound T001-0851]
remaining activity at 2800 µM (read-out: DdlB RA): 93%

C1CNCC(CCc2noc(C3CCOCC3)n2)C1 (centres unmarked) [SA66-1056]
remaining activity at 1800 µM [1]: 94%

CC(=O)N1CCC(CCc2noc(C)n2)C1 (centres unmarked) [SA67-1016]
remaining activity at 2700 µM (tested concentration 2.7 mM, read-out: DdlB RA): 93%

Cc1ccc(C#N)c(O)n1 [FLD051]
remaining activity at 2500 µM [2]: 97%

CCC(CC)NC1=NS(=O)(=O)c2ccccc21 [Compound 8003-7481]
remaining activity at 2400 µM (read-out: DdlB RA): 100%

O=S(=O)(Nc1ccccc1Cl)c1ccc(F)cc1 [Compound 1763-0763]
remaining activity at 1900 µM [1]: 115%

CCS(=O)(=O)N1CCc2[nH]c(-c3ccccc3)nc2C1 [Compound T147-0013]
remaining activity at 2100 µM [1]: 81%

CN1CCN(C(=O)CCC(=O)O)c2cccnc21 [FF01-3162]
remaining activity at 2400 µM (read-out: DdlB RA): 65%

CCOC(=O)c1cn[nH]c1O [Compound C201-1623]
remaining activity at 3200 µM (read-out: DdlB RA): 101%

O=C(O)C[C@H]1NC(=O)N(CCc2cccc(F)c2)C1=O [Compound Y042-2983]
remaining activity at 1800 µM [3]: 93%

Nc1cc(Cl)ccc1O [FLD032]
remaining activity at 2500 µM [2]: 100%

CCCc1nnc(-c2ccncc2)o1 [Compound Z632-7367]
remaining activity at 2600 µM (tested concentration 2.6 mM, read-out: DdlB RA): 94%

Cc1cc(C(=O)O)n(C)n1 [FLD094]
remaining activity at 2500 µM [2]: 96%

O=C(O)Cc1ccsc1 [FLD003]
remaining activity at 2500 µM [2]: 100%

Nc1ccc(F)c(Cl)c1 [FLD050]
remaining activity at 2500 µM (read-out: DdlB RA): 98%

N/C(=N\O)c1cnn2c(-c3cccc(C(F)(F)F)c3)ccnc12 [Compound 23, (Z)-N'-Hydroxy-7–(3-(trifluoromethyl)phenyl)pyrazolo[1,5-a]pyrimidine-3-carboximidamide]
remaining activity at 500 µM (at 0.5 mM, read-out: DdlB inhibition, RA (Residual Activity)): 94%

O=C(O)CC1CCN(c2ccc(Cl)nn2)CC1 [Compound Y043-2007]
remaining activity at 2000 µM [3]: 90%

O=C(O)c1cnc(-c2ccc(F)cc2)[nH]c1=O [Compound 8020-2279]
remaining activity at 2100 µM [1]: 94%

O=C(O)C1Cc2ccccc2N1 (centres unmarked) [FLD038]
remaining activity at 2500 µM [2]: 81%

O=C(O)c1ccc(CN2CCCCC2)cc1 [FLD056]
remaining activity at 2500 µM [2]: 100%

CCOc1c(Nc2ccc(OC)cc2)c(=O)c1=O [Compound G317-0026]
remaining activity at 2000 µM (read-out: DdlB RA): 93%

Cc1ccc(CC2CC(=O)N(c3ccncc3)C2=O)cc1 (centres unmarked) [Compound 6903-0015]
remaining activity at 2000 µM [1]: 84%

Cc1cc(C)n(CCN2CCOCC2)n1 [FF20-3241]
remaining activity at 1900 µM (read-out: DdlB RA): 86%

O=C(O)Cn1nc(C(F)(F)F)c2c1CCCC2 [Compound F235-1104]
remaining activity at 2400 µM (read-out: DdlB RA): 95%

COc1cccc(CNC(=O)C2CCCCC(=O)N2C)c1 (centres unmarked) [Compound S513-0092]
remaining activity at 1900 µM [1]: 97%

Cc1ccc(-c2noc(O)n2)cc1 [Compound C066-5428]
remaining activity at 2800 µM (read-out: DdlB RA): 95%

CNC(=O)CCN1C(=O)CSC1c1ccccc1Cl (centres unmarked) [Compound V026-8598]
remaining activity at 1700 µM (tested concentration 1.7 mM, read-out: DdlB RA): 109%

O=C(O)Cc1c(Cl)cccc1Cl [FLD156]
remaining activity at 2500 µM [2]: 100%

O=C(O)c1ccccc1NC(=O)C1CCCCC1 [Compound Y030-1673]
remaining activity at 2000 µM (read-out: DdlB RA): 104%

Nc1ncccc1O [FLD125]
remaining activity at 2500 µM [2]: 97%

O=C(c1ccoc1)N1C[C@@H](CO)[C@H](c2ccncc2)C1 [Compound S824-2534]
remaining activity at 2200 µM [1]: 95%

Cc1ccnc(N)c1 [FLD087]
remaining activity at 2500 µM [2]: 100%

N#CCc1ccsc1 [FLD183]
remaining activity at 2500 µM [2]: 100%

Nc1nnc(C2CC2)s1 [FLD126]
remaining activity at 2500 µM [2]: 80%

Cc1ccc(Nc2ncccc2S(N)(=O)=O)cc1 [Compound M784-3115]
remaining activity at 1900 µM (read-out: DdlB RA): 85%

Nc1ccc(Br)cc1N [FLD118]
remaining activity at 2500 µM [2]: 90%

Nc1cccc(N)c1 [FLD111]
remaining activity at 2500 µM [2]: 92%

CNC(C)C(O)c1ccccc1 (centres unmarked) [FLD102]
remaining activity at 2500 µM [2]: 97%

Cc1cccc(C(=O)N2CCCCC2c2nnc(C)[nH]2)c1 (centres unmarked) [Compound M754-0809]
remaining activity at 1800 µM [1]: 89%

O=S(=O)(O)c1ccc2cccc(O)c2n1 [Compound 8009-2146]
remaining activity at 2200 µM (read-out: DdlB RA): 96%
